Source: patent US20190015379A1, “USE OF DIANHYDROGALACTITOL AND ANALOGS AND DERIVATIVES THEREOF, TOGETHER WITH RADIATION, TO TREAT NON-SMALL-CELL CARCINOMA OF THE LUNG AND GLIOBLASTOMA MULTIFORME AND SUPPRESS PROLIFERATION OF CANCER STEM CELLS” (DelMar Pharmaceuticals, Inc., priority 2014, published 2019)

Key:
GBM = details: GBM; Eagan (1979), Stupp (2005); cited from earlier work
[1] = Tolerability in A549 tumor-bearing Rag2 mice (body weight, CBC, clinical observations)
Description: (§1) Tumor growth was monitored by measuring tumor dimensions with calipers beginning on the first day of treatment. Tumor length and width measurements were obtained each Monday, Wednesday, and Friday. Tumor volumes were calculated according to the equation L×W^2/2 with the length (in mm) being defined as the longer axis of the tumor. Animals were weighed at the time of tumor measurement. Tumors were allowed to grow to a maximum of 800 mm^3 before termination.
All animals had blood collected by cardiac puncture at termination for CBC (complete blood count) with differentiation.
In particular, signs of ill-health were based on body weight loss, change in appetite, and behavioral signs such as altered gait, lethargy, and gross manifestations of stress. If signs of severe toxicity or tumor-related illness were seen, the animals were terminated by isoflurane overdose followed by CO2 asphyxiation, and a necropsy was performed to assess other signs of toxicity. The following organs were examined: liver, gall bladder, spleen, lung, kidney, heart, intestine, lymph nodes, and bladder. Any unusual findings were noted.

[2] = tested on: A549 human lung adenocarcinoma xenograft tumors; experiment: A549 NSCLC xenograft tumor growth in Rag2 mice; format: in vivo, female Rag2 mice
Description: The purpose of the study reported in this Example is to evaluate the activity of dianhydrogalactitol in in vivo models of drug-resistant NSCLC in comparison to other drugs, including cisplatin. Rag2 mice bearing subcutaneous human lung adenocarcinoma xenograft tumors of either TKI-resistant (H1975) or TKI-sensitive (A549) origin were treated.
Two human NSCLC cell lines, A549 (TKI-sensitive) and H1975 (TKI-resistant), were used as xenograft tumor models in female Rag2 mice. The mice were 6 to 8 weeks of age and weighed 18-23 grams. 10 mice were used per group.
Cisplatin was used in normal saline at a dose of 5 mg/kg. Administration was intravenous.
Dianhydrogalactitol was used in 0.9% sodium chloride for injection at 1.5 mg/kg to 6 mg/kg. Administration was intraperitoneal.
Treatment was initiated at a tumor volume of 100 mm^3 to 150 mm^3.
On day 0, tumor cells were implanted subcutaneously into mice in a volume of 50 μL in Matrigel™ using a 28-gauge needle; injection of the tumor cells was in the back of the mice. Mice were randomly assigned to groups based on tumor volume.
as §1

[3] = Mischler et al. 1979; cited from earlier work
[4] = GBM chemotherapy, historical data; cited from earlier work
[5] = cisplatin 5 mg/kg Q7D x 3 i.v. (group 2)

Question: With `O=NN(CCCl)C(=O)NCCCl` [Carmustine, carmustine, reference compound] as the molecule, how does the “Median O.S. (XRT + Chemo)” value (GBM) read?
Answer: 40-50 weeks

Question: With `N.N.[Cl][Pt][Cl]` [cisplatin, reference compound] as the molecule, how does the body weight loss ([1]; cisplatin 5 mg/kg (group 2)) read?
Answer: body weight loss was observed

Question: And the “tolerability of the dosage” value ([1]; cisplatin 5 mg/kg, 1 mouse unable to receive the last dose)?
Answer: may also be near the MTD

Question: What about the “day on which a mean tumor volume of 400 mm^3 was reached” value [2, 5] of the same molecule?
Answer: 66 days

Question: And the “number of animals remaining on study on day 70” value [2, 5]?
Answer: 6/10

Question: What about the tumor doubling time [2, 5] of the same molecule?
Answer: 17

Question: And the “day on which a mean tumor volume of 200 mm^3 was observed” value ([2]; cisplatin 5 mg/kg Q7D x 3 i.v. (group 2), days post-inoculation)?
Answer: 49 days

Question: What about the “tumor growth delay compared to untreated controls” value ([2]; cisplatin 5 mg/kg i.v. (positive control)) of the same molecule?
Answer: 4 days

Question: Which “absorption by the oral route” value [3] does the source give for `O[C@H]([C@H](O)[C@@H](O)CBr)[C@H](O)CBr` [dibromodulcitol] here?
Answer: rapid and fairly complete

Question: What does the source list for `Cn1nnc2c(C(N)=O)ncn2c1=O` [temozolomide, reference compound]?
Answer: DLT [4]: Hematologic; Nadir [4]: 21 to 28 days; Recovery [4]: Within 14 days
